Values of other authors as cited in patent US4981867A, “Treatment of tremor using compounds that depress calcium currents in thalamic and other central nervous system neurons” (The Board of Trustees of the Leland Stanford Junior …, priority 1989, dated 1991).

Tested on: essential-familial tremor
Conditions: stated as known in background

For `CCC1(c2ccccc2)C(=O)NCNC1=O` [primidone], the “suppression of essential-familial tremor” value is listed as “can be suppressed”.

In the case of `CC(C)NCC(O)COc1cccc2ccccc12` (centres unmarked) [propranolol], the “suppression of essential-familial tremor” value is given as “can be suppressed”.
